Assay results: patent US20240165264A1, “T CELL ACTIVATION” (The University of Birmingham, priority 2022, published 2024)

Key:
[1] = system: CD4+ T cells from the Nr4a3-FT mouse; experiment: Flow cytometry analysis of T cell activation markers after magnetic force application to MNP-bound cells; type: cell-based; conditions: blockade of actin cytoskeletal dynamics
Description: (§1) Splenic tissue was sourced from Nr4a3—fluorescent timer (Nr4a3-FT) reporter mice or from Tg4 transgenic mice, kindly provided by the laboratories of Dr David Bending (University of Birmingham) or Professor David Wraith (University of Birmingham) respectively. CD4+ T cells were purified by negative selection as per the manufacturer's instructions (Invitrogen, magnisort mouse CD4+ enrichment kit, 8804-6821-74) and CD4+ T cell purity was ≥95% in all experiments. Isolated CD4+ T cells were treated with functionalized MNPs for 30 minutes on ice, to final concentrations of 5×10^5 cells and 50 μg/ml MNPs respectively. Cells were then washed three times in PBS by 5 minutes of centrifugation at 300 g, before resuspension at 1×10^6/ml and use in force application experiments.
(§2) Cells treated with MNPs were subjected to external magnetic force through use of the Magnetic Ion Channel Activation (MICA) platform for force application as previously described (Henstock et al., 2018; Hughes et al., 2008). […] In all experiments shown, oscillations were set at 1 Hz and the plate was positioned 3 mm away from the particles in the on position. Force was applied for time frames shown, before assessment of biological T cell activity as described herein.
Following force application for time frames indicated, cells were maintained in a 37° C. […]

Nr4a3-FT CD4+ T cells = experiment: Force induced TCR downregulation (TCRlo) by flow cytometry; type: cell-based, mouse; conditions: Latrunculin A 0.25 and 1 μM; cells with 250 nm particles and force
Description: as §1, §2
Where indicated, cells were treated with Latrunculin A (Tocris, C973) to final concentrations of 0.25 and 1 μM. […]

**Q.** How did the “effect on force induced T cell activation” value [1] turn out when `C/C1=C/C(=O)O[C@@H]2C[C@@H](CC[C@H](C)/C=C\C=C\CC1)O[C@@](O)([C@@H]1CSC(=O)N1)C2` [Latrunculin A] was run?
**A.** The value was “prevents TCR downregulation and T cell activation”.

**Q.** And the “effect on force induced TCR downregulation” value (Nr4a3-FT CD4+ T cells)?
**A.** The value was “prevents force induced TCR downregulation”.

**Q.** And the “effect on population of cells that are TCRlo and Nr4a3 positive” value (Nr4a3-FT CD4+ T cells)?
**A.** Its value is “prevents the establishment of a population of cells that are TCRlo and Nr4a3 positive”.
